Columns and labels:
[1] = test system: rumen microbial cells enzyme source; experiment: Microbial protein adsorption to ground barley straw; set-up: species or system cows
Description: For the cellulose adhesion tests, the microbial enzyme source was resuspended and tested for adhesion on to a cellulose. substrate (barley straw, with 4% CP and ground through 0.5 mm sieve). […] 0.1 g of the straw in 5 ml of a bacterial cell-enzyme inoculum suspension, and then following the supernatant protein change with time. Readings were taken at 10, 20, 30, 60, and 120 min. At the end of the adsorption period, the assay contents were centrifuged at 2500 g max for 10 min to precipitate the solids, and the protein in the supernatant was precipitated out by 15% TCA solution and quantified by the Bicichoninic method (Smith et al., “Measurement of protein using bicinchonic acid,” Anal. Biochem. 150:76 (1984)). […]

dairy cows = experiment: Tween 80 in total mixed ration, dairy herd trial (Example 4); assay type: in vivo, Holsteins
Description: One hundred and twenty cows and heifers in a dairy herd of Holsteins were divided into three treatment groups of 40 animals per group. All animals were given ad libitum access to a total mixed ration (TMR) based on grass silage, corn silage, grass hay, barley and canola meal. The treatments imposed were: Treatment 1—TMR without additive (Control). Treatment 2—TMR formulated to contain 0.2% (wt/wt) Tween 80+0.1% enzyme preparation (wt/wt). Treatment 3—TMR formulated to contain 0.2% (wt/wt) Tween 80. The Tween 80 was coated onto silica to form a product containing 50% Tween 80 and 50% silica. The enzyme preparation was obtained from Lucta S. A. (Barcelona, Spain). The preparation had the following activities: β-glucanase 263.0, xylanase 75.1 and amylase 542.6. Activities were expressed as nmol of reducing sugars released per mg of enzyme in 1 min at 0.83 mg/ml enzyme concentration. The trial lasted 13 weeks. Animals received their respective dietary treatments for 12 weeks. Milk production and feed intake were monitored until the 13th week (1 week after animals had been removed from dietary treatments). Feed (TMR) offered to each group was weighed and recorded at each feeding. Each group was fed to provide a weighback of 5%. Samples of the feed offered and refused were taken daily, composited into weekly samples and dried at 55° C. for 72 hr to determine dry matter (DM) content. Daily (AM and PM) milk production by each cow was recorded. Animals were weighed two days in a row immediately after milking on a monthly basis. Milk samples were taken for compositional analyses (fat, protein, and somatic cells) in the week preceding the trial, and then during the trial at 4 week intervals. Samples were taken from both the AM and the PM milkings and analyzed individually.

[2] = test system: rumen microbial proteinases; experiment: Protease activity of mixed rumen microbial cell enzyme source (casein substrate); assay type: biochemical, cows
Description: Two rumen-fistulated, nonlactating cows averaging 623±12.5 kg in weight were fed 5 kg dry matter (DM) of low quality timothy hay twice daily. About 2.5L of rumen fluid was collected through the fistula 4 hrs after the morning feeding at 07:00 hrs. Bulk feed particles were removed by sieving the fluid through a 0.5 mm strain. The fluid was then composited and then stored in a prewarmed (37° C.) thermal container.
A microbial powder was prepared using the acetone-butanol extraction procedure outlined by Mahadevan et al., “Preparation of protease from mixed rumen microorganisms and its use for the in vitro determination of true protein in feedstuffs,” Can. J. Anim. Sci. 67:55 (1987). About 500 g of this powder was prepared and stored at −20° C. Extraction of the proteases was accomplished by stirring 250 g of the powder with 1L of 4° C. cold water (for 1 hr) and then proceeding along Mahadevan's extraction procedure. Only extracts from the filtration with an XM-300 Amicon Filter, (approx. 300 000 molecular weight cutoff—under nitrogen gas), were made, washed twice with distilled water and the retentate freeze dried. This was referred to as the mixed microbial cell enzyme source. It was used in the protein adhesion tests and also in the parallel thiol and protease activity determinations.
Ten grams of the mixed microbial cell enzyme was dissolved in 100 ml warm (37° C.) 0.1 M phosphate buffer, pH 6.8, and used as an enzyme inoculant. The assay matrix consisted of 1 ml enzyme source, 1 ml 2% casein solution, 1 ml 01 M phosphate buffer and 1 ml of either the relevant level of surfactant or an equivalent amount of buffer. Ten levels of the two surfactants, polyoxyethylene sorbitan monoleate (Tween 80) and polyoxyethylene sorbitan monastearate (Tween 60) were tested, viz 0, 0.08, 0.16, 0.24, 0.32, 0.4, 0.8, 1.2, 1.6, and, 2.0% surfactant in the assay mixture.
The protease activity incubations were performed in 50 ml plastic centrifuge tubes, at 37° C. and under a stream of carbon dioxide gas. After 1.5 hr, 1 ml of the assay mixture was removed for the determination of thiols (SH) and disulfides (SS) (Sasago et al., “Determination of sulfhydryl and disulfide groups in milk by p-chloromercuribenzoate-diathizone method,” J. Dairy Sci. 46:1348-1351 (1963)). At the end of 2 hr incubation, the reaction was stopped with 1 ml of 15% TCA (trichloroacetic acid) solution, cooled to 4° C. under an icebath, and centrifuged at 10,000 for 10 min. The free amino acids in the supernatant were assayed using the ninhydrin method (Rosen, “a Modified Colorimetric Analysis For Amino Acids,” Arch. Biochim. Biophys. 67:10 (1957)). The optimal surfactant inclusion level was calculated by direct linear plots on the assumption that the Michaellis-Menten equation applied.

[3] = In vitro true digestibility (IVTD) of orchardgrass hay, Ankom in vitro system, 22 h
Description: The carriers were celite (Fisher Scientific Co. New Jersey, USA), diatomaceous earth (Sigma Chemical Co. St. Louis, Mo.) and LuctaCarrier (Lucta, S. A. Barcelona, Spain). Tween 80 was mixed with the carriers such that the resulting mixture contained 50% Tween 80 (wt/wt). The ability of Tween 80 in these mixtures to improve digestive efficiency was evaluated in vitro with orchardgrass hay that had been ground to pass through a 1 mm screen. Treatments included 0 (control), 0.1 and 0.2% liquid Tween 80, 0.1 and 0.2% Tween 80 in diatomaceous earth, 0.1 and 0.2% Tween 80 in celite, and 0.1 and 0.2% Tween 80 in LuctaCarrier. Appropriate quantities of each substrate were mixed with the additives and incubated in the Ankom in vitro system (Ankom Technology Fairport NY) for 22 h.

[4] = direct linear plots, Michaelis-Menten assumed

polyoxyethylene sorbitan monoleate [Tween 80]
Microbial protein adsorption extent ([1]; 0.05% additive): 1.12b μg/mg
Microbial protein adsorption rate ([1]; 0.05% additive): 0.032b (0.01) μg/mg/min
Microbial protein adsorption extent ([1]; 0.10% additive): 1.21c μg/mg
Microbial protein adsorption rate ([1]; 0.10% additive): 0.034c (0.02) μg/mg/min
Microbial protein adsorption extent ([1]; 0.25% additive): 1.18c μg/mg
Microbial protein adsorption rate ([1]; 0.25% additive): 0.035c (0.01) μg/mg/min
Microbial protein adsorption extent ([1]; 0.50% additive): 1.19c μg/mg
Microbial protein adsorption rate ([1]; 0.50% additive): 0.034c (0.02) μg/mg/min
More milk per cow than control over the 12-week period (dairy cows; 0.2% Tween 80 (with or without 0.1% enzyme)): 64 kg
Average increase in milk production over control (dairy cows; all cows lactating at least 3 weeks before start, 0.2% Tween 80 (with or without 0.1% enzyme)): 0.76 kg/cow/day
Milk produced (kg) per kg of feed consumed (dairy cows; feed conversion efficiency): 1.48 kg per kg of feed
More milk than control (dairy cows; fresh cows, after the 4th week of lactation): approximately 4 kg more milk/cow/day
More milk than a cow on Tween 80 plus enzyme over 12 weeks (dairy cows; mature cow, 0.2% Tween 80): 74 kg
More milk than a cow on the control diet over 12 weeks (dairy cows; mature cow, 0.2% Tween 80): 110 kg
Average increase in milk production (dairy cows; mature cows, 0.2% Tween 80): 1.31 kg/day
Initial rate of proteinase activation ([2]; control=0): 163.5%
Km (additive conc.), proteinase activation [2, 4]: 0.20 ± 0.03b %
Vmax (maximum proteinase activation) [2, 4]: 166.8 ± 8.9b %/unit additive conc.
In vitro true digestibility (IVTD) ([3]; 0.1% Tween 80): 54.20%
In vitro true digestibility (IVTD) ([3]; 0.2% Tween 80): 54.93%

From US20040076659A1, “Additive for livestock feeds” (priority 1994, published 2004)
